Results taken from US20070033061A1 (priority 2005, published 2007).
≈ marks a conversion by molar mass, not a printed value.

What was measured:
Format in all cases: cell-based
[1] = tested on: membrane permeabilized E. coli; conditions: for enhancement of the activity of ciprofloxacin: at 25 μM
[2] = tested on: E. coli ΔrecB strains
[3] = tested on: E. coli wild-type
[4] = tested on: E. coli strain MG1655 and mutated strains; experiment: microbe, parasite or virus in culture
[5] = tested on: E. coli MG1655 loss of function strains; experiment: microbe, parasite or virus in culture
[6] = tested on: P. aeruginosa strains RTC1014-RTC1019
[7] = tested on: E. coli strains RTC0141-RTC0148

Molecule: NCCCCCCNc1ccnc2cc(Cl)ccc12 [Formula III]
- ciprofloxacin sensitization [1]: enhanced ciprofloxacin sensitivity

Molecule: Cn1c2ccccc2n2c3ncccc3c(=O)c(C#N)c12 [Formula IIb]
- enhancement of the activity of ciprofloxacin [1]: enhanced the activity of ciprofloxacin

Molecule: Cn1c2ccccc2n2c3cnccc3c(=O)c(C#N)c12 [Formula IIc]
- enhancement of the activity of ciprofloxacin [1]: enhanced the activity of ciprofloxacin

Molecule: Nc1ccc2noc3c2c1C(=O)c1ccccc1-3 [Formula Ia]
- MIC shift in ciprofloxacin responsiveness [1]: 10 ×

Molecule: CO[C@@]12[C@H](COC(N)=O)C3=C(C(=O)C(C)=C(N)C3=O)N1C[C@@H]1N[C@@H]12 [Mitomycin C]
- Mitomycin C MIC lower compared to recB+ strains [2]: about 8 fold

Molecule: O=C(O)c1cn(C2CC2)c2cc(N3CCNCC3)c(F)cc2c1=O [ciprofloxacin]
- cells killed [3]: 99%
- ciprofloxacin MIC, gyrA S83Δ [4]: 0.25 µg/mL
- MIC ([4]; Escherichia coli, MG1655, read-out: ciprofloxacin MIC): < 0.001 µg/mL
- ciprofloxacin MIC, gyrA S83Δ [5]: 0.25 µg/mL
- MIC ([5]; Escherichia coli, MG1655, read-out: ciprofloxacin MIC, gyrA S83L): 0.45 µg/mL (≈ 1.36 µM)

B1: lambda gam: protein used by λ phage to inhibit E. coli RecB; overexpressed from an arabinose-inducible vector (protein, UniProt P03702 1-138, looked up)
Host-nuclease inhibitor …: MDINTETEIKQKHSLTPFPVFLISPAFRGRYFHSYFRSSAMNAYYIQDRLEAQSWARHYQQLAREEKEAELADDMEKGLPQHLFESLCIDHLQRHGASKKSITRAFDDDVEFQERMAEHIRYMVETIAHHQVDIDSEV
- decrease in the ciprofloxacin MIC on overexpression of lambda gam [6]: 2-4 fold
- effect of lambda gam overexpression on ciprofloxacin sensitivity [6]: no effect
- decrease in the ciprofloxacin IC50 on overexpression of lambda gam [7]: 5-8 fold
- effect of lambda gam overexpression on ciprofloxacin sensitivity [7]: no effect
